Experimental data as given in patent US6872716B2, “Antipsychotic sulfonamide-heterocycles, and methods of use thereof” (Sepracor, Inc., priority 2000, dated 2005).
Each block holds one compound with its values, some of them ahead of it.

How the values were obtained:
[1] = biological target: 5-HT Transporter (UniProt P31645); experiment: serotonin transporter radioligand binding screen
Method: (§1) The NMDA receptor (PCP site) screen was conducted according to Goldman, M. E. et al. FEBS Letters 85, […]. The norepinephrine transporter screen was conducted according to Galli A et al. J. Exp. Biol. 1995, 198, 2197. The dopamine and serotonin transporter screens were conducted according to Gu, H. et al. J. Biol. Chem. 1994, 269(10), 7124. The sigma-1 screen was conducted according to de Costa B. R. FEBS 1989, 251, 53.

[2] = biological target: NE Transporter (Homo sapiens, UniProt P23975); experiment: norepinephrine transporter radioligand binding screen
Method: as §1

[3] = tail flick model (in vivo analgesia); conditions: iv; administered intravenously
Method: (§2) The acetic acid writhing model was conducted according to Inoue K. et al. Arzneim. Forsch 1991, 41(I), 235. The formalin model was conducted according to Hunskaar, S. et al. J. Neurosci Meth. 1985, 14, 69. The tail flick model was conducted according to D'Amour F. E. and Smith D. L. J. Pharmacol. Exp. Ther. 1941, 72, 74. Compound 6 was administered intravenously.

[4] = acetic acid writhing model (in vivo analgesia); conditions: iv; administered intravenously
Method: as §2

[5] = formalin model (in vivo analgesia); conditions: iv; administered intravenously
Method: as §2

[6] = system: rats; experiment: learned helplessness test in rats; assay type: in vivo, rat; conditions: male Wistar rats; dose of 5 mg/kg i.p.
Method: The objective of this study was to evaluate the potential antidepressant activity of compounds in the learned helplessness test in rats.
Male rats (Wistar, Iffa Credo, St.-Germain/1″Arbresle, France) with initial weight of 180-200 g at the beginning of the experiments were housed 3 per cage under dark cycle of 12 h-12 h (light on at 7:00 a.m., off at 7:00 p.m.) at a room temperature of 21±1° C., with a minimum 50% humidity, for a minimum of 7 days before the experiments. They had free access to commercial rat chow (UFAC, Vigney, France, ref 811002) and tap water. The learned helplessness test included two phases over 5 days.
Phase 1: Helplessness induction
On day 1, inescapable electric foot-shocks were delivered individually to rats in a Plexiglas chamber (20 cm×16 cm×16 cm [1×w×h]) with a floor consisting of stainless-steel rods. A constant-current shocker (LETICA LI 100-26, Barcelona, Spain) was used to deliver inescapable shocks (0.8 m A scrambled DC current; 10 s duration every 20 s) over 60 minutes. “Non-helplessness” control rats were placed for 1 h in identical chambers without shocking.
Phase 2: Conditional Avoidance Training
Avoidance training in automated two-way shuttle-box (LETICA LI916, Barcelona, Spain) took place on day 3, 4, and 5. The shuttle-box is divided into two equal-sized chambers connected by a 10×10 cm opening. […]

[7] = biological target: Sigma-1 (human) (Homo sapiens, UniProt Q99720); experiment: sigma-1 radioligand binding screen
Method: as §1

[8] = biological target: NMDA (PCP site); experiment: NMDA receptor (PCP site) radioligand binding screen
Method: as §1

[9] = system: rats; experiment: MK-801-induced locomotion and stereotypies, animal model of psychosis; assay type: in vivo, rat; conditions: male Wistar rats; 1.0, 2.5 and 5.0 mg/kg i.p.; 0.3 mg/kg MK-801 i.p.
From the text: The non-competitive NMDA receptor antagonist MK-801 induces stereotypies and hyperactivity in rodents (see: Carlsson, M. and Carlsson, A., J. Neural Transm., 75, 221 (1989)) by interacting with the NMDA receptor-associated ion channel. Phencyclidine, which also interferes with the NMDA receptor, produces psychotic effects in humans similar in many respects to schizophrenia. […] The neuroleptics haloperidol, clozapine and raclopride are able to reverse the behavioral changes induced by MK-801 in rats (Gattaz, W. F., Schummer, B. and Behrens, S., J. Neural Transm., 96, 227 (1994)). Therefore the MK-801-induced activity and stereotypies in rats may represent an appropriate animal model to test the potential efficacy of antipsychotic drugs.
Male Wistar rats (Iffa Credo, St Germain/l'Arbresle, France), weight 250-300 g were housed 2 per cage on a 12 h/12 h light dark cycle (lights on at 7.00 a.m.) at a room temperature of 21±2° C. for a minimum of 5 days before testing. All animals had access to commercial food and tap water ad libitum. […]
On the day of the experiment, rats were treated with either reference drug vehicle, the reference drugs haloperidol or clozapine the test compound vehicle or test compounds. […] Stereotypies, defined as wall-contacts with the snout, and locomotion, defined as turn-rounds of 180°, were assessed during 5 minute periods.

Sigma-1 (human), sequence (Q99720 whole entry): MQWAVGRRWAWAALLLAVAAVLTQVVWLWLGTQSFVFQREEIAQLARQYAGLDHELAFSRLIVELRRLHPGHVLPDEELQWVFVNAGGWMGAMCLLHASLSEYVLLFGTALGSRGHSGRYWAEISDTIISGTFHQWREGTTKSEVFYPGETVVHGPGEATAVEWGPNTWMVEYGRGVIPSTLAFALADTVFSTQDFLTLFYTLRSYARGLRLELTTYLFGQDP
NE Transporter, sequence (P23975 whole entry): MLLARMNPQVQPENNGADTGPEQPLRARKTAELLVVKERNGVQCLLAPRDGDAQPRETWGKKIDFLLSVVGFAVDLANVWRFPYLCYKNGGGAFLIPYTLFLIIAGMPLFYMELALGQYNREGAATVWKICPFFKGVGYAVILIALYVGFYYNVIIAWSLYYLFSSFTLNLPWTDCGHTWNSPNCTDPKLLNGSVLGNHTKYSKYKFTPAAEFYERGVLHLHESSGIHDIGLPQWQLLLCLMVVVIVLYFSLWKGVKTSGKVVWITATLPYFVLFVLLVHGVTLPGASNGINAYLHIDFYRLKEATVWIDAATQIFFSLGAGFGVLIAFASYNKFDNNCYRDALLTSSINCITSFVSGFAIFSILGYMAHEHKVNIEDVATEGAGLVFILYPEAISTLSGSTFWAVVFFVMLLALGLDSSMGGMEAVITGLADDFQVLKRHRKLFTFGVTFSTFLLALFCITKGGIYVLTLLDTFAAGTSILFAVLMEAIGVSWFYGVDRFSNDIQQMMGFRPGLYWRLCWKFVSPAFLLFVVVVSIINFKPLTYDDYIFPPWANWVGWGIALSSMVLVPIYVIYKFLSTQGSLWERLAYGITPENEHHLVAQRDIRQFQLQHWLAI

IC50 [7]: 550 nM
Compound: CS(=O)(=O)N(C[C@@H]1CCCN(CCc2ccccc2)C1)c1ccccc1 [Compound 12, (R)-N-(1-phenethyl-pieridin-3-ylmethyl)-N-phenyl-methanesulfonamide]

IC50 [7]: 22 nM
Compound: CS(=O)(=O)N(C[C@H]1CCCN(CCc2ccccc2)C1)c1ccccc1 [Compound 16, (S)-N-(1-phenethyl-pieridin-3-ylmethyl)-N-phenyl-methanesulfonamide]
MK-801-induced locomotion [9]: dose-dependent reduction
MK-801-induced stereotypies [9]: dose-dependent reduction

The remaining lines, values behind:

Compound: CS(=O)(=O)N(C[C@@H]1CCCN(CC2(c3ccc(Cl)cc3)CCC2)C1)c1ccccc1 [Compound 21, N-{1-[1-(4-Chloro-phenyl)-cyclobutylmethyl]-piperidin-3-R-ylmethyl}-N-phenyl-methanesulfon-amide]
IC50 [1]: 2800 nM
IC50 [2]: 62 nM

Compound: CS(=O)(=O)N(CC1CCCN(CCc2ccccc2)C1)c1ccccc1 (racemic) [Compound 6, N-(1-phenethyl-pieridin-3-ylmethyl)-N-phenyl-methanesulfonamide]
ED50 [3]: 23 mg/kg
ED50 [4]: 7.8 mg/kg
ED50 [5]: 18 mg/kg
activity in the learned helplessness test [6]: active
IC50 [7]: 118 nM

Compound: CS(=O)(=O)N(CC1CCCNC1)c1ccccc1 (stereo not drawn) [Compound 5, N-phenyl-N-piperidin-3-ylmethyl-methanesulfonamide]
IC50 [8]: 108 nM
